# Measurements: ChEMBL document CHEMBL1681650, “Scaffold oriented synthesis. Part 4: design, synthesis and biological evaluation of novel 5-substituted indazoles as potent and selective kinase inhibitors employing heterocycle forming and multicomponent reactions” (Bioorg Med Chem Lett, 2011)
# Experiments:
# [1] = target: Serine/threonine-protein kinase PAK 4 (Homo sapiens, UniProt O96013); test: Inhibition of Pak4
# [2] = target: Glycogen synthase kinase-3 beta (Homo sapiens, UniProt P49841); test: Inhibition of GSK3-beta
# [3] = target: Rho-associated protein kinase 2 (Homo sapiens, UniProt O75116); test: Inhibition of Rock2
# [4] = target: Serine/threonine-protein kinase pim-1 (Homo sapiens, UniProt P11309); test: Inhibition of Pim1
# [5] = target: Vascular endothelial growth factor receptor 2 (Homo sapiens, UniProt P35968); test: Inhibition of KDR
# [6] = target: Epidermal growth factor receptor (Homo sapiens, UniProt P00533); test: Inhibition of EGFR
# [7] = target: Tyrosine-protein kinase JAK2 (Homo sapiens, UniProt O60674); test: Inhibition of JAK2
# Serine/threonine-protein kinase pim-1, sequence (P11309 whole entry): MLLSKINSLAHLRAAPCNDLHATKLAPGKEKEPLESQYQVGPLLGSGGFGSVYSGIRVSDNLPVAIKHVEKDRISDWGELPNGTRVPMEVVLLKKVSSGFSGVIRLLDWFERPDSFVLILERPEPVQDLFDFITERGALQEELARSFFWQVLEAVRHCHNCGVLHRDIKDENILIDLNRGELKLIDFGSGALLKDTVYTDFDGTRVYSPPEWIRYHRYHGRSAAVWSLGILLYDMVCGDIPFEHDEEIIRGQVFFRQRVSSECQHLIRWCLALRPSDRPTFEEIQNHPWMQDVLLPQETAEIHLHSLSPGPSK
# Rho-associated protein kinase 2, sequence (O75116 whole entry): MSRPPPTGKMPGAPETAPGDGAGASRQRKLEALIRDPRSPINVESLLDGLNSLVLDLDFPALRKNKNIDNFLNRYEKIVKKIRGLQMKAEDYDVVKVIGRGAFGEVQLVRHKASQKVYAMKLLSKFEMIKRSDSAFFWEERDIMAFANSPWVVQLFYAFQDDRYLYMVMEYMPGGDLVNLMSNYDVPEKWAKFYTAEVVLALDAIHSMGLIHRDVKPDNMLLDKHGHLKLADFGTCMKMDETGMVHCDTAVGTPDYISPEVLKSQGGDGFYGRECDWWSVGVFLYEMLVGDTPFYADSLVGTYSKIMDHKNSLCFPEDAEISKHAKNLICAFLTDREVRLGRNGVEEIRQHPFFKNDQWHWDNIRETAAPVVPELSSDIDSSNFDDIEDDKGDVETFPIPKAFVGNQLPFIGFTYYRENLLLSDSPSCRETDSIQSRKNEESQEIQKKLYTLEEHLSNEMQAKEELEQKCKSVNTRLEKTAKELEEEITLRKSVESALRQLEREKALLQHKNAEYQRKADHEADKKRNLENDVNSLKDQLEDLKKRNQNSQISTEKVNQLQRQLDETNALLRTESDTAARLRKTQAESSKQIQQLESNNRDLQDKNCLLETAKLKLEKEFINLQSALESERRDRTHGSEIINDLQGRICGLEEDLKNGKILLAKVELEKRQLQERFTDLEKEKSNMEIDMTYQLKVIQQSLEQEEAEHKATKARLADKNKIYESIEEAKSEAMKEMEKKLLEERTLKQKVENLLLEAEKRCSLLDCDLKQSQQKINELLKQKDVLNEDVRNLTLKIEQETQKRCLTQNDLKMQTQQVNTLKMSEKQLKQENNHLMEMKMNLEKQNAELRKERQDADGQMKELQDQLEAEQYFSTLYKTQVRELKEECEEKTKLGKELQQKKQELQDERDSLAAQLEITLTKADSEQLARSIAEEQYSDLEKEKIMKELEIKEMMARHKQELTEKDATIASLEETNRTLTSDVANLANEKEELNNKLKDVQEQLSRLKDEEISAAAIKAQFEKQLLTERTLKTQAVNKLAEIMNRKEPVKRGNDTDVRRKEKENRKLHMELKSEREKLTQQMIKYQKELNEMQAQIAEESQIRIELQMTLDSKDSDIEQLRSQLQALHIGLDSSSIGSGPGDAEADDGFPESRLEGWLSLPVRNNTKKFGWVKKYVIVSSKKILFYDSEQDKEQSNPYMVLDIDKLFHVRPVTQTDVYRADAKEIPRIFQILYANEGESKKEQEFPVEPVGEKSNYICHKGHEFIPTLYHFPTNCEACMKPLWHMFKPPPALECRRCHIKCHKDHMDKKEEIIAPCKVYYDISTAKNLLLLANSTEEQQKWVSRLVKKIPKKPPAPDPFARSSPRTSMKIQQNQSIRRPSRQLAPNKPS
# Vascular endothelial growth factor receptor 2, sequence (P35968 whole entry): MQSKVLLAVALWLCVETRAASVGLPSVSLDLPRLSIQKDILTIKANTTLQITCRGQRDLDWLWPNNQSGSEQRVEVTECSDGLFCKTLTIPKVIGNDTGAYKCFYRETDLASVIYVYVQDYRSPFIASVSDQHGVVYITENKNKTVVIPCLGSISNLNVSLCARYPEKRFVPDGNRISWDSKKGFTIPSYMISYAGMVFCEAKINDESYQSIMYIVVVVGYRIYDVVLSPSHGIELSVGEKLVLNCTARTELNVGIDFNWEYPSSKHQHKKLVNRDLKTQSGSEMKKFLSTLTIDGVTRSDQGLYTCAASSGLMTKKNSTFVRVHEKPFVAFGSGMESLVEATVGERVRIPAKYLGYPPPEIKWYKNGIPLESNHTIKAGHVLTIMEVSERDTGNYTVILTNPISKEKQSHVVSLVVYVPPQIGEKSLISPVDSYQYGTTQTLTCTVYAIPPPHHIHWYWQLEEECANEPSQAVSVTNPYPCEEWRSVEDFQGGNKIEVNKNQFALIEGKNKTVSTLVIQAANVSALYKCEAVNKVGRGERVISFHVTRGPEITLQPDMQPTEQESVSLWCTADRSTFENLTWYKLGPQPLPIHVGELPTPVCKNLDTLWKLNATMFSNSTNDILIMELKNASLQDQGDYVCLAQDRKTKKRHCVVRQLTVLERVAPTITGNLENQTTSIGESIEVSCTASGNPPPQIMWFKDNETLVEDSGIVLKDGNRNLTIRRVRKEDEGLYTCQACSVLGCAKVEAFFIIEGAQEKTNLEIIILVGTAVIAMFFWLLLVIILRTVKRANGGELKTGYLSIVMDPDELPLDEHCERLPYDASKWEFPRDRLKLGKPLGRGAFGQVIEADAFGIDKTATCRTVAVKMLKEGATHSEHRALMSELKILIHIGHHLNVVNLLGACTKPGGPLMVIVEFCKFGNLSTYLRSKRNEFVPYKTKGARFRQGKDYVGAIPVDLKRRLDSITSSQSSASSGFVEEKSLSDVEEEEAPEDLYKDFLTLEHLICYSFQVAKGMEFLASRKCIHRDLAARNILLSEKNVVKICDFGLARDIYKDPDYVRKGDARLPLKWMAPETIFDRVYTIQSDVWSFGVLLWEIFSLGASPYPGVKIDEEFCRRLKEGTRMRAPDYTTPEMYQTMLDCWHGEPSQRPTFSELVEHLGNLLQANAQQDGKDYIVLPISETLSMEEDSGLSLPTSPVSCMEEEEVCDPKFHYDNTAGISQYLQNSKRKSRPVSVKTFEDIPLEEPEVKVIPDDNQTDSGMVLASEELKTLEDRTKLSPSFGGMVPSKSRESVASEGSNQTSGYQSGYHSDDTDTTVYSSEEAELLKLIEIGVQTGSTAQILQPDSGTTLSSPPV
# Epidermal growth factor receptor, sequence (P00533 whole entry): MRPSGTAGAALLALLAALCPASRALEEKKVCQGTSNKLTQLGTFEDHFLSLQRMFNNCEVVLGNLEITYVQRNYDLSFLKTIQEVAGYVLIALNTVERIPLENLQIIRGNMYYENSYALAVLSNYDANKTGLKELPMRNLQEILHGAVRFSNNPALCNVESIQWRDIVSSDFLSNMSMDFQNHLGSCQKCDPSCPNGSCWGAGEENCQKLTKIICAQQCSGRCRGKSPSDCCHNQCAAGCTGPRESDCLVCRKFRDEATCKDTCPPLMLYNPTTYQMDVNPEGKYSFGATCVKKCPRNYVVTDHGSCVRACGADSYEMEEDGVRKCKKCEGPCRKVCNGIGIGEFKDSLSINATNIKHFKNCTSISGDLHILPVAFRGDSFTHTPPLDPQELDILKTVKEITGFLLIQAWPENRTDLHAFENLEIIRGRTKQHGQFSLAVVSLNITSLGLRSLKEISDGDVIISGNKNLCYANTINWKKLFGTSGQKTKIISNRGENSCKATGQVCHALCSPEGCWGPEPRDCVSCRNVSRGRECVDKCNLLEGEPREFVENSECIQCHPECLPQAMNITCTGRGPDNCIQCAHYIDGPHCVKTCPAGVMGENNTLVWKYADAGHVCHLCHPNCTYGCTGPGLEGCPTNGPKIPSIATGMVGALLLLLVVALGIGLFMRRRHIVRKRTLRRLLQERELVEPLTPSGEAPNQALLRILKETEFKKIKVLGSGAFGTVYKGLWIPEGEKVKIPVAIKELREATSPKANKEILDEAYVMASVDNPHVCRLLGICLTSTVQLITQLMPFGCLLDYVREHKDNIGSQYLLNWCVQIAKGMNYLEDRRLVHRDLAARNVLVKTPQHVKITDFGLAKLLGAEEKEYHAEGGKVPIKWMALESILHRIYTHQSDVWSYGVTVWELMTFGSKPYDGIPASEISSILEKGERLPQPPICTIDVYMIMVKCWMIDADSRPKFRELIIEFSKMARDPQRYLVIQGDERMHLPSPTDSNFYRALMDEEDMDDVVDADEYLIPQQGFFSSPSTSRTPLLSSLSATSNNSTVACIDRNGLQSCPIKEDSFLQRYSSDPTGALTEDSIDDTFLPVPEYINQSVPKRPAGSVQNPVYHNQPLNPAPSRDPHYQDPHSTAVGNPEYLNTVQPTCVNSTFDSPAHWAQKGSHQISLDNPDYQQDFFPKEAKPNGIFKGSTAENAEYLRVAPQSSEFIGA
# Glycogen synthase kinase-3 beta, sequence (P49841 whole entry): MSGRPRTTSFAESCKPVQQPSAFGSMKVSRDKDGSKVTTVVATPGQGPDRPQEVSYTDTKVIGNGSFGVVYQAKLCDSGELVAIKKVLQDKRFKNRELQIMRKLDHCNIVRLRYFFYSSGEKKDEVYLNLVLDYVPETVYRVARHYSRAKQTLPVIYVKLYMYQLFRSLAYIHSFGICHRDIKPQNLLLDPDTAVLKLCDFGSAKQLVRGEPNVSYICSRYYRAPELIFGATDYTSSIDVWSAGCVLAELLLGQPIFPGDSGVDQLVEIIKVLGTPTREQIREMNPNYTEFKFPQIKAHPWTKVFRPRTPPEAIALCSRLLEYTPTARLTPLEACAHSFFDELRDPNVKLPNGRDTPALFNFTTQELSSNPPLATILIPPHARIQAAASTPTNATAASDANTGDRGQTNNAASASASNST
SMILES,Ki [1],Ki [2],Ki [3],Ki [4],Ki [5],Ki [6],Ki [7]
CN(C)CCn1cnc(-c2ccc(F)cc2)c1-c1ccc2[nH]ncc2c1,> 3750 nM,> 5450 nM,> 6000 nM,> 8750 nM,> 8880 nM,67 nM,> 1450 nM
Fc1ccc(-c2ncn(CCCN3CCOCC3)c2-c2ccc3[nH]ncc3c2)cc1,> 3750 nM,> 5450 nM,> 6000 nM,> 8750 nM,> 8880 nM,27 nM,> 1450 nM
Clc1ccc(Nc2c(-c3ccc4[nH]ncc4c3)nc3ncccn23)cc1,> 3750 nM,121 nM,1560 nM,> 8750 nM,> 8880 nM,,
c1ccc(CCNc2nc(-c3ccc4[nH]ncc4c3)cs2)cc1,> 3750 nM,> 5450 nM,364 nM,> 8750 nM,> 8880 nM,,
c1ccc(Nc2nc(-c3ccc4[nH]ncc4c3)c(-c3ccccc3)s2)cc1,> 3750 nM,> 5450 nM,1410 nM,> 8750 nM,> 8880 nM,,
Fc1ccc(-c2ncn(C3CCN(Cc4ccccc4)C3)c2-c2ccc3[nH]ncc3c2)cc1 (centres undefined),> 3750 nM,> 5450 nM,> 6000 nM,> 8750 nM,> 8880 nM,8 nM,> 1450 nM
c1ccc(CNc2nc(-c3ccc4[nH]ncc4c3)c(-c3ccccc3)s2)cc1,> 3750 nM,3400 nM,822 nM,> 8750 nM,> 8880 nM,,

# Now those with a lower Ki [4], led by results:
Ki [1],Ki [2],Ki [3],Ki [4],Ki [5],Ki [6],Ki [7],SMILES
> 3750 nM,19 nM,116 nM,114 nM,> 8880 nM,,,CCCCNc1c(-c2ccc3[nH]ncc3c2)nc2ncccn12
> 3750 nM,2860 nM,513 nM,4160 nM,> 8880 nM,,,Cc1nc(-c2ccc3[nH]ncc3c2)cs1
> 3750 nM,3930 nM,888 nM,1950 nM,> 8880 nM,,,CCNc1nc(-c2ccc3[nH]ncc3c2)cs1
> 3750 nM,10 nM,6 nM,339 nM,> 8880 nM,,,c1ccc(-c2c(-c3ccc4[nH]ncc4c3)nc3ncccn23)cc1
,,,1850 nM,,,,c1cn2c(NC3CCCCC3)c(-c3ccc4[nH]ncc4c3)nc2cn1
,2610 nM,2480 nM,2310 nM,,,,c1ccn2c(NC3CCCCC3)c(-c3ccc4[nH]ncc4c3)nc2c1
> 3750 nM,4470 nM,909 nM,2900 nM,> 8880 nM,,,Nc1nc(-c2ccc3[nH]ncc3c2)cs1
,642 nM,622 nM,1290 nM,5340 nM,,,c1cn2c(NC3CCCCC3)c(-c3ccc4[nH]ncc4c3)nc2s1
